This is an account of results in ChEMBL document CHEMBL1158197, “A new prenylated flavonol from the root of Petalostemon purpureus” (1996).

For assay [1], the system named is Col2. Put plainly: Cytotoxicity against human Col2 cells. The settings on record: read-out: ED50 (the source's name). In kind it is functional.
Assay [2] relates to Lu1. Put plainly: Cytotoxicity against human Lu1 cells. In kind it is functional. The settings on record: read-out: ED50 (the source's name).
Assay [3] has as its system SK-MEL-2. Kind of assay: Cytotoxicity against human SK-MEL-2 cells. In kind it is functional. The settings on record: read-out: ED50 (the source's name).
The subject of assay [4] is HT. Put plainly: Cytotoxicity against human HT cells. In kind it is functional. Particulars: read-out: ED50 (the source's name).
Assay [5] can be described thus: Cytotoxicity against human KBVIN cells in absence of vinblastine. In kind it is functional. The settings on record: read-out: ED50 (the source's name).
A short description of assay [6]: Cytotoxicity against human KBVIN cells in presence of vinblastine. The settings on record: read-out: ED50 (the source's name). In kind it is functional.
Assay [7] deals with A-431. Put plainly: Cytotoxicity against human A431 cells. In kind it is functional. Particulars: read-out: ED50 (the source's name).
The nature of assay [8]: Cytotoxicity against human U373 cells. In kind it is functional, U-373MG ATCC. Particulars: U373 MG, read-out: ED50 (the source's name).
Assay [9] in a line: Cytotoxicity against human BC1 cells. Particulars: read-out: ED50 (the source's name). In kind it is functional.
Assay [10] concerns Betapolyomavirus macacae. Put plainly: Induction of DNA-strand scission activity in SV40 form 1 DNA at 25 ug/mL.
Assay [11] relates to ZR-75-1. Put plainly: Cytotoxicity against human ZR-75-1 cells. In kind it is functional. The settings on record: read-out: ED50 (the source's name).
Assay [12] concerns LNCaP. Kind of assay: Cytotoxicity against human LNCAP cells. In kind it is functional. The settings on record: read-out: ED50 (the source's name).
In assay [13] the test system is KB. Kind of assay: Cytotoxicity against human KB cells. In kind it is functional. The settings on record: read-out: ED50 (the source's name).
Assay [14] deals with Betapolyomavirus macacae. Kind of assay: Induction of DNA-strand scission activity in SV40 form 1 DNA at 0.1 ug/mL.

Values after ≈ are worked out from the molar mass of the structure shown. Active and inactive are the calls of the source. No cut-off for these calls is given here.

As to `CC(C)=CCCC1(C)C=Cc2c(-c3oc4cc(O)cc(O)c4c(=O)c3O)ccc(O)c2O1` (configuration not stated) [PETALOPURPURENOL], the EC50 in [1] is above 20 µg/mL; in assay [2] it was 14.8 µg/mL (≈ 33.9 µM); in assay [3], 17.1 µg/mL (≈ 39.2 µM); in assay [4] it was 7.3 µg/mL (≈ 16.7 µM); in [5] it was 6.7 µg/mL (≈ 15.4 µM); in assay [6], 1 µg/mL. In addition, the EC50 in [7] was found to be 11.9 µg/mL (≈ 27.3 µM); in assay [8], 13.3 µg/mL (≈ 30.5 µM); in [9], 9.9 µg/mL (≈ 22.7 µM); in assay [11], 4.1 µg/mL (≈ 9.39 µM); in assay [12] it was 14.8 µg/mL (≈ 33.9 µM); in assay [13], 18.9 µg/mL (≈ 43.3 µM). Further, the result in assay [10] was inactive.

Consider `CC(C)=CCc1cc(O)c(O)c(CC=C(C)C)c1[C@H]1Oc2c(CC=C(C)C)c(O)cc(O)c2C(=O)[C@@H]1O` [PETALOSTEMUMOL], for which the EC50 in assay [1] was above 20 µg/mL; in assay [2] it was above 20 µg/mL; in assay [3], above 20 µg/mL; in [4], 10.3 µg/mL (≈ 20.3 µM); in assay [5] it was above 20 µg/mL; in [6], 1.2 µg/mL. Moreover, the EC50 is above 20 µg/mL in [7]; above 20 µg/mL in assay [8]; above 20 µg/mL in assay [9]; 17.1 µg/mL (≈ 33.6 µM) in [11]; above 20 µg/mL in assay [12]; above 20 µg/mL in assay [13]. For the same compound, the result in [10] was Active.

With BLEOMYCIN SULFATE, the result in [14] was Active.
